# Assay results: US6737383B1, “Herbicidal oxadiazolidines” (priority 1999, dated 2004)
# What was measured:
# [1] = test system: winter wheat; test: Test E winter wheat; assay type: in vivo, Triticum aestivum; settings: Preemergence; for Wheat (winter) plant response rating (0 to 100 scale): Rate 250 g/ha
# [2] = test system: winter wheat; test: Test E winter wheat; assay type: in vivo, Triticum aestivum; settings: Postemergence; for Wheat (winter) plant response rating: Rate 250 g/ha
# Method in brief: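 Greenhouse test: compounds in non-phytotoxic solvent with surfactant; for postemergence, sprayed on plants at 1- to 4-leaf stage grown in 60:40 sandy loam/potting mix. Injury rated visually against untreated controls after about 21 to 28 days.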
# [3] = test system: surinam grass; test: Test B pre/postemergence surinam grass; assay type: in vivo, Brachiaria decumbens
# Method in brief: (§1)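 Herbicidal effect was estimated by eye on a ten-point control scale after plants spent twelve to sixteen days in a greenhouse following soil or foliar treatment. Foliar sprays targeted plants at one to four leaves; all doses were formulated in a non-phytotoxic solvent with surfactant.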
# [4] = test system: corn; test: Test B pre/postemergence corn; assay type: in vivo, Zea mays
# Method in brief: as §1
# [5] = test system: wild oat; test: Test E wild oat; assay type: in vivo, Avena fatua; settings: Preemergence; for Wild oat plant response rating (0 to 100 scale): Rate 250 g/ha
# [6] = test system: Italian ryegrass; test: Test E Italian ryegrass; assay type: in vivo, Lolium multiflorum; settings: Preemergence; for I. Ryegrass plant response rating (0 to 100 scale): Rate 250 g/ha
# [7] = test system: crabgrass; test: Test B pre/postemergence crabgrass; assay type: in vivo, Digitaria sanguinalis
# Method in brief: as §1
# [8] = test system: blackgrass; test: Test E blackgrass; assay type: in vivo, Alopecurus myosuroides; settings: Preemergence; for Blackgrass plant response rating (0 to 100 scale): Rate 250 g/ha
# [9] = test system: green foxtail; test: Test E green foxtail; assay type: in vivo, Setaria viridis; settings: Preemergence; for Green foxtail plant response rating (0 to 100 scale): Rate 250 g/ha
# [10] = test system: winter barley; test: Test E winter barley; assay type: in vivo, Hordeum vulgare; settings: Preemergence; for Barley (winter) plant response rating (0 to 100 scale): Rate 250 g/ha
# [11] = test system: bedstraw; test: Test B pre/postemergence bedstraw; assay type: in vivo, Galium aparine
# Method in brief: as §1
# [12] = Rate 125 g/ha, 0 to 100 scale (0 no effect, 100 complete control)
# [13] = Rate 500 g/ha, 0 to 100 scale where 0 is no effect and 100 is complete control
# [14] = Rate 125 g/ha, 0 to 100 scale, 0 is no effect, 100 is complete control
# [15] = 0 to 100 scale where 0 is no effect and 100 is complete control
# [16] = Rate 500 g/ha, 0 to 100 scale, 0 is no effect, 100 is complete control
# [17] = Preemergence, Rate 62 g/ha, scale of 0 to 10 where 0 is no effect and 10 is complete control
# [18] = Preemergence, Rate 250 g/ha, scale 0 to 10, 0 is no effect, 10 is complete control
# [19] = Preemergence, Rate 500 g/ha, scale of 0 to 10 where 0 is no effect and 10 is complete control
# [20] = Rate 62 g/ha, Postemergence, scale of 0 to 10 where 0 is no effect and 10 is complete control
# [21] = Rate 125 g/ha, Postemergence, scale 0 (no effect) to 10 (complete control)
# [22] = Rate 125 g/ha, Preemergence, scale of 0 to 10 where 0 is no effect and 10 is complete control
# [23] = Rate 500 g/ha, Postemergence, scale 0 to 10, 0 no effect, 10 complete control
# [24] = Preemergence, Rate 250 g/ha, scale of 0 to 10 where 0 is no effect and 10 is complete control
# [25] = Rate 125 g/ha, Postemergence, scale 0 to 10
# [26] = Rate 1000 g/ha, 0 to 100 scale, 0 no effect, 100 complete control
# [27] = Rate 31 g/ha, 0 to 100 scale, 0 no effect, 100 complete control
# [28] = Rate 62 g/ha, 0 to 100 scale, 0 no effect, 100 complete control
compound,measurement,setting,value
CC(C)N(C(=O)n1oc(=O)n(CCC2OCCO2)c1=O)c1ccc(F)cc1 [Compound 219],"Plant response rating, Wheat (winter)",[1]; [12],35
same,Wheat (winter) plant response rating (0 to 100 scale),[1],60
same,"Plant response rating, Wheat (winter)",[1]; [13],60
same,"Plant response rating, Wheat (winter)",[2]; [14],20
same,Wheat (winter) plant response rating,[2]; [15],50
same,"Plant response rating, Wheat (winter)",[2]; [16],60
same,B. signalgrass plant response rating,[3]; [17],4
same,B. signalgrass plant response rating,[3]; [18],9
same,"Plant response rating, B. signalgrass",[3]; [19],9
same,B. signalgrass plant response rating,[3]; [20],0
same,B. signalgrass plant response rating,[3]; [21],2
same,B. signalgrass plant response rating,[3]; [22],6
same,"Plant response rating (0 to 10; 0 is no effect, 10 is complete control), B. signalgrass","[3]; Rate 250 g/ha, Postemergence",5
same,B. signalgrass plant response rating,[3]; [23],8
same,Corn plant response rating,[4]; [17],0
same,Corn plant response rating,[4]; [24],5
same,"Plant response rating, Corn",[4]; [19],7
same,Corn plant response rating,[4]; [20],0
same,Corn plant response rating,[4]; [25],0
same,Corn plant response rating,[4]; [22],0
same,"Plant response rating (0 to 10; 0 is no effect, 10 is complete control), Corn","[4]; Rate 250 g/ha, Postemergence",4
same,Corn plant response rating,[4]; [23],5
same,"Plant response rating, Wild oat",[5]; [12],30
same,Wild oat plant response rating (0 to 100 scale),[5],50
same,"Plant response rating, Wild oat",[5]; [13],60
same,"Plant response rating, I. Ryegrass",[6]; [12],30
same,I. Ryegrass plant response rating (0 to 100 scale),[6],55
same,"Plant response rating, I. Ryegrass",[6]; [13],70
same,Crabgrass plant response rating,[7]; [17],5
same,Crabgrass plant response rating,[7]; [24],9
same,"Plant response rating, Crabgrass",[7]; [19],10
same,Crabgrass plant response rating,[7]; [20],3
same,Crabgrass plant response rating,[7]; [25],4
same,Crabgrass plant response rating,[7]; [22],8
same,"Plant response rating (0 to 10; 0 is no effect, 10 is complete control), Crabgrass","[7]; Rate 250 g/ha, Postemergence",6
same,Crabgrass plant response rating,[7]; [23],8
same,"Plant response rating, Blackgrass",[8]; [12],0
same,Blackgrass plant response rating (0 to 100 scale),[8],20
same,"Plant response rating, Blackgrass",[8]; [13],70
same,"Plant response rating, Green foxtail",[9]; [12],65
same,Green foxtail plant response rating (0 to 100 scale),[9],60
same,"Plant response rating, Green foxtail",[9]; [13],70
same,"Plant response rating, Barley (winter)",[10]; [12],20
same,Barley (winter) plant response rating (0 to 100 scale),[10],30
same,"Plant response rating, Barley (winter)",[10]; [13],70
same,Bedstraw plant response rating,[11]; [17],1
same,Bedstraw plant response rating,[11]; [24],8
same,"Plant response rating, Bedstraw",[11]; [19],9
same,Bedstraw plant response rating,[11]; [20],6
same,Bedstraw plant response rating,[11]; [25],6
same,Bedstraw plant response rating,[11]; [22],5
same,"Plant response rating (0 to 10; 0 is no effect, 10 is complete control), Bedstraw","[11]; Rate 250 g/ha, Postemergence",8
same,Bedstraw plant response rating,[11]; [23],8
Cc1nc(C)c(Cn2c(=O)on(C(=O)N(c3ccc(F)cc3F)C(C)C)c2=O)s1 [Compound 233],Wheat (winter) plant response rating (0 to 100 scale),[1],50
same,"Plant response rating, Wheat (winter)",[1]; [13],50
same,"Plant response rating, Wheat (winter)",[1]; [26],60
same,"Plant response rating, Wheat (winter)","[2]; Rate 1000 g/ha, 0 to 100 scale where 0 is no effect and 100 is complete control",60
same,Wheat (winter) plant response rating,[2]; [15],50
same,"Plant response rating, Wheat (winter)",[2]; [16],55
same,B. signalgrass plant response rating,[3]; [17],0
same,B. signalgrass plant response rating,[3]; [18],4
same,"Plant response rating, B. signalgrass",[3]; [19],4
same,B. signalgrass plant response rating,[3]; [20],0
same,B. signalgrass plant response rating,[3]; [21],0
same,B. signalgrass plant response rating,[3]; [22],2
same,"Plant response rating (0 to 10; 0 is no effect, 10 is complete control), B. signalgrass","[3]; Rate 250 g/ha, Postemergence",0
same,B. signalgrass plant response rating,[3]; [23],1
same,Corn plant response rating,[4]; [17],0
same,Corn plant response rating,[4]; [24],0
same,"Plant response rating, Corn",[4]; [19],0
same,Corn plant response rating,[4]; [20],0
same,Corn plant response rating,[4]; [25],0
same,Corn plant response rating,[4]; [22],0
same,"Plant response rating (0 to 10; 0 is no effect, 10 is complete control), Corn","[4]; Rate 250 g/ha, Postemergence",0
same,Corn plant response rating,[4]; [23],0
same,Wild oat plant response rating (0 to 100 scale),[5],55
same,"Plant response rating, Wild oat",[5]; [13],60
same,"Plant response rating, Wild oat",[5]; [26],60
same,I. Ryegrass plant response rating (0 to 100 scale),[6],40
same,"Plant response rating, I. Ryegrass",[6]; [13],50
same,"Plant response rating, I. Ryegrass",[6]; [26],60
same,Crabgrass plant response rating,[7]; [17],5
same,Crabgrass plant response rating,[7]; [24],9
same,"Plant response rating, Crabgrass",[7]; [19],10
same,Crabgrass plant response rating,[7]; [20],0
same,Crabgrass plant response rating,[7]; [25],0
same,Crabgrass plant response rating,[7]; [22],6
same,"Plant response rating (0 to 10; 0 is no effect, 10 is complete control), Crabgrass","[7]; Rate 250 g/ha, Postemergence",1
same,Crabgrass plant response rating,[7]; [23],6
same,Blackgrass plant response rating (0 to 100 scale),[8],50
same,"Plant response rating, Blackgrass",[8]; [13],60
same,"Plant response rating, Blackgrass",[8]; [26],85
same,Green foxtail plant response rating (0 to 100 scale),[9],100
same,"Plant response rating, Green foxtail",[9]; [13],100
same,"Plant response rating, Green foxtail",[9]; [26],100
same,Barley (winter) plant response rating (0 to 100 scale),[10],30
same,"Plant response rating, Barley (winter)",[10]; [13],50
same,"Plant response rating, Barley (winter)",[10]; [26],60
same,Bedstraw plant response rating,[11]; [17],0
same,Bedstraw plant response rating,[11]; [24],0
same,"Plant response rating, Bedstraw",[11]; [19],0
same,Bedstraw plant response rating,[11]; [20],0
same,Bedstraw plant response rating,[11]; [25],0
same,Bedstraw plant response rating,[11]; [22],0
same,"Plant response rating (0 to 10; 0 is no effect, 10 is complete control), Bedstraw","[11]; Rate 250 g/ha, Postemergence",3
same,Bedstraw plant response rating,[11]; [23],5
[2H]C([2H])([2H])n1c(=O)on(C(=O)N(c2ccc(F)cc2)C(C)C)c1=O [Compound 245],"Plant response rating, Wheat (winter)",[1]; [27],20
same,"Plant response rating, Wheat (winter)",[1]; [28],20
same,"Plant response rating, Wheat (winter)",[1]; [12],50
same,"Plant response rating, Wheat (winter)",[2]; [27],0
same,"Plant response rating, Wheat (winter)","[2]; Rate 62 g/ha, 0 to 100 scale",10
same,"Plant response rating, Wheat (winter)",[2]; [14],0
same,B. signalgrass plant response rating,[3]; [17],3
same,B. signalgrass plant response rating,[3]; [24],8
same,"Plant response rating, B. signalgrass",[3]; [19],10
same,B. signalgrass plant response rating,[3]; [20],1
same,B. signalgrass plant response rating,[3]; [21],4
same,B. signalgrass plant response rating,[3]; [22],7
same,"Plant response rating (0 to 10; 0 is no effect, 10 is complete control), B. signalgrass","[3]; Rate 250 g/ha, Postemergence",6
same,B. signalgrass plant response rating,[3]; [23],8
same,Corn plant response rating,[4]; [17],3
same,Corn plant response rating,[4]; [24],7
same,"Plant response rating, Corn",[4]; [19],8
same,Corn plant response rating,[4]; [20],0
same,Corn plant response rating,[4]; [25],4
same,Corn plant response rating,[4]; [22],5
same,"Plant response rating (0 to 10; 0 is no effect, 10 is complete control), Corn","[4]; Rate 250 g/ha, Postemergence",5
same,Corn plant response rating,[4]; [23],7
same,"Plant response rating, Wild oat",[5]; [27],30
same,"Plant response rating, Wild oat",[5]; [28],40
same,"Plant response rating, Wild oat",[5]; [12],30
same,"Plant response rating, I. Ryegrass",[6]; [27],20
same,"Plant response rating, I. Ryegrass",[6]; [28],40
same,"Plant response rating, I. Ryegrass",[6]; [12],60
same,Crabgrass plant response rating,[7]; [17],9
same,Crabgrass plant response rating,[7]; [24],9
same,"Plant response rating, Crabgrass",[7]; [19],10
same,Crabgrass plant response rating,[7]; [20],2
same,Crabgrass plant response rating,[7]; [22],9
same,"Plant response rating (0 to 10; 0 is no effect, 10 is complete control), Crabgrass","[7]; Rate 250 g/ha, Postemergence",8
same,Crabgrass plant response rating,[7]; [23],8
same,"Plant response rating, Blackgrass",[8]; [27],60
same,"Plant response rating, Blackgrass",[8]; [28],60
same,"Plant response rating, Blackgrass",[8]; [12],50
same,"Plant response rating, Green foxtail",[9]; [27],60
same,"Plant response rating, Green foxtail",[9]; [28],100
same,"Plant response rating, Green foxtail",[9]; [12],100
same,"Plant response rating, Barley (winter)",[10]; [27],40
same,"Plant response rating, Barley (winter)",[10]; [28],50
same,"Plant response rating, Barley (winter)",[10]; [12],70
same,Bedstraw plant response rating,[11]; [17],0
same,Bedstraw plant response rating,[11]; [24],9
same,"Plant response rating, Bedstraw",[11]; [19],10
same,Bedstraw plant response rating,[11]; [20],3
same,Bedstraw plant response rating,[11]; [25],9
same,Bedstraw plant response rating,[11]; [22],2
same,"Plant response rating (0 to 10; 0 is no effect, 10 is complete control), Bedstraw","[11]; Rate 250 g/ha, Postemergence",9
same,Bedstraw plant response rating,[11]; [23],9
